Source: paper PMC9743092, “Membrane-Active Cyclic Amphiphilic Peptides: Broad-Spectrum Antibacterial Activity Alone and in Combination with Antibiotics” (Journal of Medicinal Chemistry, 2022)
Converted amounts (≈) assume the structure as drawn. Square brackets hold non-standard residues; d marks the D form. Peptide text beside a SMILES is read from it.

Key:
[1] = system: E. coli (ATCC 25922); design: MIC E. coli: unit not given beside the values; conditions: supplementary csv, unit not given
[2] = system: human red blood cells (hRBCs); conditions: red cells of human, 2 h
Procedure: The hemolytic activity of all the cyclic peptides was determined using human red blood cells (hRBC) purchased from BioIVT, USA. […] Peptide-induced hemolysis was tested in triplicate by mixing 75 μL of the peptide solution in PBS (two-fold serial dilution) with 75 μL of a 4% (v/v) hRBC suspension in phosphate-buffered saline. The plates were incubated for 2 h at 37 °C without agitation and centrifuged at 1000g for 10 min. Aliquots (100 μL) of the supernatant were transferred to 96-well plates, where hemoglobin release was measured spectrophotometrically at 567 nm. Percent hemolysis was calculated by the following formula: [drawing 1] where A represents the absorbance of the peptide sample at 567 nm and A0 and At represent zero percent and 100% hemolysis determined in phosphate-buffered saline and 1% Triton X-100, respectively.

[3] = system: P. aeruginosa (ATCC 27883); design: MIC P. aeruginosa: unit not given beside the values; conditions: for MIC P. aeruginosa: supplementary csv, unit not given
[4] = system: K. pneumoniae (ATCC BAA-1705); conditions: for MIC K. pneumoniae: supplementary csv, unit not given
[5] = system: MRSA (ATCC BAA-1556); design: MIC MRSA: unit not given beside the values; conditions: supplementary csv, unit not given
[6] = system: P. aeruginosa (ATCC 27883); assay: Synergistic checkerboard assay; assay type: cell-based; conditions: Pseudomonas aeruginosa, ATCC27883; checkerboard; read-out: MIC antibiotic alone
Procedure: (§1) This study aimed to compare the influence of synergistic combinations on the antibacterial efficacy against the individual peptide or antibiotic. The comparison is represented by the fractional inhibitory concentration index (FICI) value, which classifies the combined impact of the two tested compounds. Selected antibiotics were tested as 11 dose points of two-fold serial dilutions across the assay plate in combination with seven points of two-fold serial dilution of the peptides down the assay plate. Two-fold serial dilutions for antibiotics and peptides were performed individually to determine the MIC value for each tested compound.
(§2) The concentrations of the peptide started from its respective MICs and were then subjected to two-fold serial dilutions (a total of 7 points). […] Antibiotics were tested as 11 points, two-fold serial dilutions across the assay plate (from 1 to 11 columns) in combination with a seven (A–G)-point and two-fold serial dilution of the peptides down the assay plate. […] In column 12 (A–G) down the assay plate, a two-fold serial dilution of the peptide alone was performed.
(§3) The following equation was applied to calculate the FICI: (A)/MICA + (B)/MICB = FICA + FICB = FICI, where (A) and (B) are the MIC of (antibiotic + [peptide]) in combination (in a single well) and MICA and MICB are the MIC of each compound individually. Based on the calculated FICI value, the interaction between combinations was categorized into four prospects synergy, partial synergy, additive or indifference, and antagonism. […] All experiments were performed in triplicate.

[7] = system: K. pneumoniae (ATCC BAA-1705); assay: Synergistic checkerboard assay
Procedure: as §1, §2, §3

[8] = antibiotic alone or physical mixture with peptide (1:1 w/w)

Structure (SMILES) | MIC E. coli [1] | HC50 [2] [µg/mL] | MIC P. aeruginosa [3] | MIC K. pneumoniae [4] | MIC MRSA [5] | MIC [6] [µg/mL] | MIC P. aeruginosa (ATCC 27883) [3, 8] [µg/mL] | MIC K. pneumoniae (ATCC BAA-1705) [4, 8] [µg/mL] | MIC ([7]; Klebsiella pneumoniae, ATCCBAA1705, read-out: MIC antibiotic alone) [µg/mL] | MIC antibiotic alone ([7]; checkerboard) [µg/mL]
N=C(N)NCCC[C@@H]1NC(=O)[C@H](CCCNC(=N)N)NC(=O)[C@H](CCCNC(=N)N)NC(=O)[C@H](Cc2c[nH]c3ccccc23)NC(=O)[C@H](Cc2c[nH]c3ccccc23)NC(=O)[C@H](Cc2c[nH]c3ccccc23)NC(=O)[C@H](Cc2c[nH]c3ccccc23)NC(=O)[C@H](Cc2c[nH]c3ccccc23)NC(=O)[C@H](Cc2c[nH]c3ccccc23)NC(=O)[C@H](Cc2c[nH]c3ccccc23)NC(=O)[C@H](CCCNC(=N)N)NC(=O)[C@H](CCCNC(=N)N)NC1=O [5d, [R5W7]] (cyclo(RRRRRWWWWWWW)) | >256 | 115 | >256 | >256 | >256 |  |  |  |  | 
N=C(N)NCCC[C@@H]1NC(=O)[C@H](CCCNC(=N)N)NC(=O)[C@H](CCCNC(=N)N)NC(=O)[C@H](Cc2c[nH]c3ccccc23)NC(=O)[C@H](Cc2c[nH]c3ccccc23)NC(=O)[C@H](Cc2c[nH]c3ccccc23)NC(=O)[C@H](Cc2c[nH]c3ccccc23)NC(=O)[C@H](Cc2c[nH]c3ccccc23)NC(=O)[C@H](Cc2c[nH]c3ccccc23)NC(=O)[C@H](Cc2c[nH]c3ccccc23)NC(=O)[C@H](CCCNC(=N)N)NC1=O [4d, [R4W7]] (cyclo(RRRRWWWWWWW)) | 128 | 60 | >256 | 256 | 256 |  |  |  |  | 
N=C(N)NCCC[C@@H]1NC(=O)[C@H](CCCNC(=N)N)NC(=O)[C@H](Cc2c[nH]c3ccccc23)NC(=O)[C@H](Cc2c[nH]c3ccccc23)NC(=O)[C@H](Cc2c[nH]c3ccccc23)NC1=O [2a, [R2W3]] (cyclo(RRWWW); ring closure inferred) | 256 | 120 | 256 | 256 | 32 |  |  |  |  | 
N=C(N)NCCC[C@H]1NC(=O)[C@H](Cc2c[nH]c3ccccc23)NC(=O)[C@H](Cc2c[nH]c3ccccc23)NC(=O)[C@H](Cc2c[nH]c3ccccc23)NC(=O)[C@H](Cc2c[nH]c3ccccc23)NC(=O)[C@@H](CCCNC(=N)N)NC(=O)[C@@H](CCCNC(=N)N)NC(=O)[C@@H](CCCNC(=N)N)NC1=O [4a, [dR4W4]] (cyclo([dR][dR][dR][dR]WWWW)) | 16 | 110 | 64 | 64 | 8 |  |  |  |  | 
N=C(N)NCCC[C@@H]1NC(=O)[C@H](CCCNC(=N)N)NC(=O)[C@H](CCCNC(=N)N)NC(=O)[C@H](Cc2c[nH]c3ccccc23)NC(=O)[C@H](Cc2c[nH]c3ccccc23)NC(=O)[C@H](Cc2c[nH]c3ccccc23)NC(=O)[C@H](Cc2c[nH]c3ccccc23)NC(=O)[C@H](Cc2c[nH]c3ccccc23)NC(=O)[C@H](Cc2c[nH]c3ccccc23)NC(=O)[C@H](CCCNC(=N)N)NC1=O [4c, [R4W6]] | 128 | 75 | 128 | 256 | 128 |  |  |  |  | 
N=C(N)NCCC[C@@H]1NC(=O)[C@H](CCCNC(=N)N)NC(=O)[C@H](CCCNC(=N)N)NC(=O)[C@H](CCCNC(=N)N)NC(=O)[C@H](Cc2c[nH]c3ccccc23)NC(=O)[C@H](Cc2c[nH]c3ccccc23)NC(=O)[C@H](Cc2c[nH]c3ccccc23)NC(=O)[C@H](Cc2c[nH]c3ccccc23)NC(=O)[C@H](Cc2c[nH]c3ccccc23)NC(=O)[C@H](Cc2c[nH]c3ccccc23)NC(=O)[C@H](Cc2c[nH]c3ccccc23)NC(=O)[C@H](CCCNC(=N)N)NC(=O)[C@H](CCCNC(=N)N)NC1=O [6d, [R6W7]] (cyclo(RRRRRRWWWWWWW)) | 128 | 85 | >256 | 256 | 64 |  |  |  |  | 
N=C(N)NCCC[C@@H]1NC(=O)[C@H](CCCNC(=N)N)NC(=O)[C@H](Cc2c[nH]c3ccccc23)NC(=O)[C@H](Cc2c[nH]c3ccccc23)NC(=O)[C@H](Cc2c[nH]c3ccccc23)NC(=O)[C@H](CCCNC(=N)N)NC1=O [3a, [R3W3]] (cyclo(WWWRRR); ring closure inferred) | 32 | 155 | 128 | 64 | 16 |  |  |  |  | 
N=C(N)NCCC[C@@H]1NC(=O)[C@H](CCCNC(=N)N)NC(=O)[C@H](Cc2c[nH]c3ccccc23)NC(=O)[C@H](Cc2c[nH]c3ccccc23)NC(=O)[C@H](Cc2c[nH]c3ccccc23)NC(=O)[C@H](Cc2c[nH]c3ccccc23)NC(=O)[C@H](CCCNC(=N)N)NC1=O [3b, [R3W4]] (cyclo(RRRWWWW); ring closure inferred) | 32 | 105 | 256 | 64 | 8 |  |  |  |  | 
N=C(N)NCCC[C@@H]1NC(=O)[C@H](CCCNC(=N)N)NC(=O)[C@H](CCCNC(=N)N)NC(=O)[C@H](CCCNC(=N)N)NC(=O)[C@H](Cc2c[nH]c3ccccc23)NC(=O)[C@H](Cc2c[nH]c3ccccc23)NC(=O)[C@H](Cc2c[nH]c3ccccc23)NC(=O)[C@H](Cc2c[nH]c3ccccc23)NC(=O)[C@H](CCCNC(=N)N)NC(=O)[C@H](CCCNC(=N)N)NC(=O)[C@H](CCCNC(=N)N)NC1=O [7a, [R7W4]] (cyclo(RRRRRRRWWWW)) | 32 | 190 | 32 | 64 | 16 |  |  |  |  | 
N=C(N)NCCC[C@@H]1NC(=O)[C@H](CCCNC(=N)N)NC(=O)[C@H](Cc2c[nH]c3ccccc23)NC(=O)[C@H](Cc2c[nH]c3ccccc23)NC(=O)[C@H](Cc2c[nH]c3ccccc23)NC(=O)[C@H](Cc2c[nH]c3ccccc23)NC(=O)[C@H](Cc2c[nH]c3ccccc23)NC(=O)[C@H](Cc2c[nH]c3ccccc23)NC(=O)[C@H](Cc2c[nH]c3ccccc23)NC(=O)[C@H](CCCNC(=N)N)NC1=O [3e, [R3W7]] (cyclo(RRRWWWWWWW)) | 256 | 60 | 256 | 64 | 256 |  |  |  |  | 
N=C(N)NCCC[C@@H]1NC(=O)[C@H](CCCNC(=N)N)NC(=O)[C@H](CCCNC(=N)N)NC(=O)[C@H](CCCNC(=N)N)NC(=O)[C@H](Cc2c[nH]c3ccccc23)NC(=O)[C@H](Cc2c[nH]c3ccccc23)NC(=O)[C@H](Cc2c[nH]c3ccccc23)NC(=O)[C@H](Cc2c[nH]c3ccccc23)NC(=O)[C@H](Cc2c[nH]c3ccccc23)NC(=O)[C@H](Cc2c[nH]c3ccccc23)NC(=O)[C@H](CCCNC(=N)N)NC(=O)[C@H](CCCNC(=N)N)NC1=O [6c, [R6W6]] (cyclo(RRRRRRWWWWWW)) | 64 | 170 | 128 | 64 | 16 |  |  |  |  | 
N=C(N)NCCC[C@@H]1NC(=O)[C@H](CCCNC(=N)N)NC(=O)[C@H](Cc2c[nH]c3ccccc23)NC(=O)[C@H](Cc2c[nH]c3ccccc23)NC(=O)[C@H](Cc2c[nH]c3ccccc23)NC(=O)[C@H](Cc2c[nH]c3ccccc23)NC(=O)[C@H](Cc2c[nH]c3ccccc23)NC(=O)[C@H](Cc2c[nH]c3ccccc23)NC(=O)[C@H](CCCNC(=N)N)NC1=O [3d, [R3W6]] | 64 | 65 | 256 | 128 | 64 |  |  |  |  | 
N=C(N)NCCC[C@@H]1NC(=O)[C@H](CCCNC(=N)N)NC(=O)[C@H](CCCNC(=N)N)NC(=O)[C@H](Cc2c[nH]c3ccccc23)NC(=O)[C@H](Cc2c[nH]c3ccccc23)NC(=O)[C@H](Cc2c[nH]c3ccccc23)NC(=O)[C@H](Cc2c[nH]c3ccccc23)NC(=O)[C@H](Cc2c[nH]c3ccccc23)NC(=O)[C@H](CCCNC(=N)N)NC1=O [4b, [R4W5]] | 64 | 100 | 128 | 128 | 8 |  |  |  |  | 
CCC[C@@H]1C[C@@H](C(=O)N[C@@H]([C@H]2O[C@H](SC)[C@H](O)[C@@H](O)[C@H]2O)[C@H](C)Cl)N(C)C1 [clindamycin] |  |  |  |  |  | 512 | 512 (≈ 1200 µM) | 512 (≈ 1200 µM) | 512 | 512
N=C(N)NCCC[C@@H]1NC(=O)[C@H](CCCNC(=N)N)NC(=O)[C@H](CCCNC(=N)N)NC(=O)[C@H](Cc2c[nH]c3ccccc23)NC(=O)[C@H](Cc2c[nH]c3ccccc23)NC(=O)[C@H](Cc2c[nH]c3ccccc23)NC(=O)[C@H](Cc2c[nH]c3ccccc23)NC(=O)[C@H](Cc2c[nH]c3ccccc23)NC(=O)[C@H](Cc2c[nH]c3ccccc23)NC(=O)[C@H](CCCNC(=N)N)NC(=O)[C@H](CCCNC(=N)N)NC1=O [5c, [R5W6]] (cyclo(RRRRRWWWWWW)) | >256 | 140 | >256 | >256 | >256 |  |  |  |  | 
